PMC3961306, “Comparison of the Cancer Gene Targeting and Biochemical Selectivities of All Targeted Kinase Inhibitors Approved for Clinical Use” (PLoS ONE, 2014)
Where two headings read alike, the source gives them in different places.

Assays:
Experiment in all cases: Kinase profiling in a biochemical assay panel (mobility shift assays and ELISA), %-inhibition at 1 μM; selectivity entropy
[1] = biological target: panel of more than 300 wild-type and mutant kinases (313 kinase panel) (Homo sapiens, UniProt O75116)
[2] = biological target: T1, panel of more than 300 wild-type and mutant kinases (313 kinase panel) (Homo sapiens, UniProt Q12852)
T1 sequence (Q12852 1-859): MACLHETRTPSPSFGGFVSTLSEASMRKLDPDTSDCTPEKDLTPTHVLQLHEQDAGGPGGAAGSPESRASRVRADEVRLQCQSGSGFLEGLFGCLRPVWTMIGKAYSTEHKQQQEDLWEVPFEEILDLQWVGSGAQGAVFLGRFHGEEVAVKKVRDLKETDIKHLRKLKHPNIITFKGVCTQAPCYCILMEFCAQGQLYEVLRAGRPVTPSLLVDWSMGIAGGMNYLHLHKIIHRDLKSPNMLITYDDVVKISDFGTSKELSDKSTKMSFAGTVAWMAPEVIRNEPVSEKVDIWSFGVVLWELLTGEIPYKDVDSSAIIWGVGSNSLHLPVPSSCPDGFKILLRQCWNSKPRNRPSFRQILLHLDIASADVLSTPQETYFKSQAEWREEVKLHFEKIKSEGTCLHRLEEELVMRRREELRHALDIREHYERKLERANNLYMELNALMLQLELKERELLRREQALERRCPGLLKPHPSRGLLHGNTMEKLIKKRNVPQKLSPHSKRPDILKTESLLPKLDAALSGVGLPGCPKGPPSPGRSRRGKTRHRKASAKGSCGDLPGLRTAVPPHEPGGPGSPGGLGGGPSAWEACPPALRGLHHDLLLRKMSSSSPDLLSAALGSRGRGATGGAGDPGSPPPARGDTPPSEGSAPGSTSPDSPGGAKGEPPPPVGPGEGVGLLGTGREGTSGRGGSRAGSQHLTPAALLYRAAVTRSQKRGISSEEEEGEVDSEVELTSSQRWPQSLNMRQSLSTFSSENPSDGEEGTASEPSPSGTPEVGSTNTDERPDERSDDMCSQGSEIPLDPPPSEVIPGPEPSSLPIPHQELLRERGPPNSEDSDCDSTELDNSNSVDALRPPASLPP

[3] = biological target: panel of more than 300 wild-type and mutant kinases (313 kinase panel) (Homo sapiens, UniProt Q16654)
[4] = biological target: T2, panel of more than 300 wild-type and mutant kinases (313 kinase panel) (Homo sapiens, UniProt Q96PY6)
T2 sequence (Q96PY6 1-1258): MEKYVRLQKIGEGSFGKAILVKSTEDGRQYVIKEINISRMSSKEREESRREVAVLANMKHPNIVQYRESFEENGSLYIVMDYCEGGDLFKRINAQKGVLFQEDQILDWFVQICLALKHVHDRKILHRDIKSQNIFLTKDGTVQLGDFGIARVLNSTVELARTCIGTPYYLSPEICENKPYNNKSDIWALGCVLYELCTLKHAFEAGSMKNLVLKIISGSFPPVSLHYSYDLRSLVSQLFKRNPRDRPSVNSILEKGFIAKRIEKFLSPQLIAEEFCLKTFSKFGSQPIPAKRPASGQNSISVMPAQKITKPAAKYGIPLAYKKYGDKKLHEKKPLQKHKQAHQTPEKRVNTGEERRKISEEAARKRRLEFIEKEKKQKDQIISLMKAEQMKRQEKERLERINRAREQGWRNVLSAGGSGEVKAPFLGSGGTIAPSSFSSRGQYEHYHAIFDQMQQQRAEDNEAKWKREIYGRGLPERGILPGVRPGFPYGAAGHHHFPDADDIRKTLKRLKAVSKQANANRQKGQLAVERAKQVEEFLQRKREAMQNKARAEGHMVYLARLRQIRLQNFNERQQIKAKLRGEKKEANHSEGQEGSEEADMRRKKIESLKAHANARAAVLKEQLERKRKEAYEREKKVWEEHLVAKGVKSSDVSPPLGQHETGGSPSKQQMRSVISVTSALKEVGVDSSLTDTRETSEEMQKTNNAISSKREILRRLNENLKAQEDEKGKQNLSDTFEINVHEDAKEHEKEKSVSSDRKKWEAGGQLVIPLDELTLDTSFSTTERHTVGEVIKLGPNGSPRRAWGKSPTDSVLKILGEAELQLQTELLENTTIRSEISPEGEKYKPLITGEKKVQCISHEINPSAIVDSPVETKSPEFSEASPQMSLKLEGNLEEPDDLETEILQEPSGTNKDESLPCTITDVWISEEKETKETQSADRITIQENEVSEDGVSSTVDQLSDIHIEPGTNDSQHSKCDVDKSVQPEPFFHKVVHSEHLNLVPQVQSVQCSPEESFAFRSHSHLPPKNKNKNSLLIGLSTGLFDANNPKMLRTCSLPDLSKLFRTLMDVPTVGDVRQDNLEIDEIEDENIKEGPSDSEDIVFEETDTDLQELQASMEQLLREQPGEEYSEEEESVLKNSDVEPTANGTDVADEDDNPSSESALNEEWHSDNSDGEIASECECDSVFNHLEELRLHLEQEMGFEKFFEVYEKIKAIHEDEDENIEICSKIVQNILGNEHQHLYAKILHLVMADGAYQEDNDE

[5] = biological target: panel of more than 300 wild-type and mutant kinases (313 kinase panel) (Homo sapiens, UniProt P49759)
[6] = biological target: panel of more than 300 wild-type and mutant kinases (313 kinase panel) (Homo sapiens, UniProt P49761)
[7] = biological target: panel of more than 300 wild-type and mutant kinases (313 kinase panel) (Homo sapiens, UniProt Q13627)
[8] = biological target: panel of more than 300 wild-type and mutant kinases (313 kinase panel) (Homo sapiens, UniProt O94804)
[9] = kinase DYRK1A, compound at 1 μM

panel of more than 300 wild-type and mutant kinases (313 kinase panel) (Homo sapiens, UniProt P49759), sequence (P49759 whole entry, change not shown): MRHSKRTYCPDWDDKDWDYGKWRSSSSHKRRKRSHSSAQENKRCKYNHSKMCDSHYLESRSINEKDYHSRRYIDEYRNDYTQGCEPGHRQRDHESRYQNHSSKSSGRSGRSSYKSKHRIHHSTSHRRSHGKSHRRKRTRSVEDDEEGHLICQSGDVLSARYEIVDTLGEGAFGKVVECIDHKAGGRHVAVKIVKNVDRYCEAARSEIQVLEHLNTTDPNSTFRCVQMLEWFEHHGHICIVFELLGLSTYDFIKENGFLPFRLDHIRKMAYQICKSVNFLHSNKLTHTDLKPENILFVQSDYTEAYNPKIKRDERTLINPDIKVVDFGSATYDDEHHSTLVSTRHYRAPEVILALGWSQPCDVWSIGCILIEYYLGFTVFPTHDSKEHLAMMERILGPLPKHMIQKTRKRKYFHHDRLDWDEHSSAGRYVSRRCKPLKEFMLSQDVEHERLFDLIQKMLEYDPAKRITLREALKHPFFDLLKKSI
panel of more than 300 wild-type and mutant kinases (313 kinase panel) (Homo sapiens, UniProt O94804), sequence (O94804 whole entry, change not shown): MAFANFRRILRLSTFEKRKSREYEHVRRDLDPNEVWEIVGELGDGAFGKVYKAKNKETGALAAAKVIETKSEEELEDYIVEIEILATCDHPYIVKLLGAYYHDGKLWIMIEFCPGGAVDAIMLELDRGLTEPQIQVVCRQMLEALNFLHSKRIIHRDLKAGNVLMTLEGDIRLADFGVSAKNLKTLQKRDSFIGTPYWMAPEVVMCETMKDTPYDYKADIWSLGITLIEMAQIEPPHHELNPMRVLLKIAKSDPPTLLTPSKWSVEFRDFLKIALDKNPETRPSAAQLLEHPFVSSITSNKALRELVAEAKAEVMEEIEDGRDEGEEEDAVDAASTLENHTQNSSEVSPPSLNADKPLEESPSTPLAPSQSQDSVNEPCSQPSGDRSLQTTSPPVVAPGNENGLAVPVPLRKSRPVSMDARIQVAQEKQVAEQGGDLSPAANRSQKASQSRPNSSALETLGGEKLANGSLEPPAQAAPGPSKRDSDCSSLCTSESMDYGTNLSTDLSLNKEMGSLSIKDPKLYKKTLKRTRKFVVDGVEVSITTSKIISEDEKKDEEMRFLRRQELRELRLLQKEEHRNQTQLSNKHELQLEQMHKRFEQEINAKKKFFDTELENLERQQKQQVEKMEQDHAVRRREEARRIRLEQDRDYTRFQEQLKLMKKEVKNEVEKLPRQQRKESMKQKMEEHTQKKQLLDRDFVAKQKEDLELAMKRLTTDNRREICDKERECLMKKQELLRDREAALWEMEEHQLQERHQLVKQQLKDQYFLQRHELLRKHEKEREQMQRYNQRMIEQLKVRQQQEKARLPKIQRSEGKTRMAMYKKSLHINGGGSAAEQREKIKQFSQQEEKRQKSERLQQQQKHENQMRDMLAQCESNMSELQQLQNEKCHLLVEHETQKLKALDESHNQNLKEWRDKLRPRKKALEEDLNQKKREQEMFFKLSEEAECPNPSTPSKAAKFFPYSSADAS
panel of more than 300 wild-type and mutant kinases (313 kinase panel) (Homo sapiens, UniProt P49761), sequence (P49761 whole entry, change not shown): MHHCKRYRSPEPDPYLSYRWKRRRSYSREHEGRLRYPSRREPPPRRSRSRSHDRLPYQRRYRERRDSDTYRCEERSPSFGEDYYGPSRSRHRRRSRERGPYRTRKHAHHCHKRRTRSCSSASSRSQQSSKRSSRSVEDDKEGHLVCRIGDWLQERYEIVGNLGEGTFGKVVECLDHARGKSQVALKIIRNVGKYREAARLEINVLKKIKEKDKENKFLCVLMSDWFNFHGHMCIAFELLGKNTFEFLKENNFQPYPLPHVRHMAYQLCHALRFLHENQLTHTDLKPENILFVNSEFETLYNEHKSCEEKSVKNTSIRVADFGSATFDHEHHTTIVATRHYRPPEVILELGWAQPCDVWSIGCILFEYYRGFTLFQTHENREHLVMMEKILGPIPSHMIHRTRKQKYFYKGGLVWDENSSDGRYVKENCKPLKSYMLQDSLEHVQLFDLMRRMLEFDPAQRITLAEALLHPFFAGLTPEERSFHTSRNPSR

| SMILES | %-inhibition of ROCK2 ([1]; kinase ROCK2, 1 μM) [%] | %-inhibition of DLK ([2]; kinase DLK, compound at 1 μM) [%] | %-inhibition of PDHK4 ([3]; kinase PDHK4, 1 μM) [%] | %-inhibition of NEK1 ([4]; kinase NEK1, 1 μM) [%] | %-inhibition, CLK1 ([5]; kinase CLK1, 1 μM compound) [%] | %-inhibition of CLK3 ([6]; kinase CLK3, compound at 1 μM) [%] | %-inhibition of DYRK1A [7, 9] [%] | %-inhibition of LOK ([8]; kinase LOK, compound at 1 μM) [%] | %-inhibition of ROCK2 ([1]; 1 µM) [%] | %-inhibition of LOK ([8]; 1 µM) [%] | %-inhibition, CLK1 ([5]; 1 µM) [%] | %-inhibition of CLK3 ([6]; 1 µM) [%] | %-inhibition of DLK ([2]; 1 µM) [%] | %-inhibition of DYRK1A [7] [%] | %-inhibition of PDHK4 ([3]; 1 µM) [%] | %-inhibition of NEK1 ([4]; 1 µM) [%] |
| --- | --- | --- | --- | --- | --- | --- | --- | --- | --- | --- | --- | --- | --- | --- | --- | --- |
| Cc1ccc(C(=O)Nc2ccc(CN3CCN(C)CC3)c(C(F)(F)F)c2)cc1C#Cc1cnc2cccnn12 [ponatinib] | 63 | 84 | -1.4 | 78 |  |  |  |  |  |  |  |  |  |  |  |  |
| CC(C)(C)c1nc(-c2cccc(NS(=O)(=O)c3c(F)cccc3F)c2F)c(-c2ccnc(N)n2)s1 [dabrafenib] | 14 | -10 | -1 | 24 | 7 | 17 | 16 |  |  |  |  |  |  |  |  |  |
| COc1cc(Nc2c(C#N)cnc3cc(OCCCN4CCN(C)CC4)c(OC)cc23)c(Cl)cc1Cl [bosutinib] | 28 | 77 |  |  |  |  |  |  |  |  |  |  |  |  |  |  |
| Cc1nc(Nc2ncc(C(=O)Nc3c(C)cccc3Cl)s2)cc(N2CCN(CCO)CC2)n1 [dasatinib] |  | 20 |  |  |  | 0.469 |  |  |  |  |  |  |  |  |  |  |
| CO[C@H]1C[C@@H]2CC[C@@H](C)[C@@](O)(O2)C(=O)C(=O)N2CCCC[C@H]2C(=O)O[C@H]([C@H](C)C[C@@H]2CC[C@@H](OC(=O)C(C)(CO)CO)[C@H](OC)C2)CC(=O)[C@H](C)/C=C(\C)[C@@H](O)[C@@H](OC)C(=O)[C@H](C)C[C@H](C)/C=C/C=C/C=C/1C [temsirolimus] | -5.66 | -6 | -1.83 | -8 |  | -3 | -3 | -5 |  |  |  |  |  |  |  |  |
| C#Cc1cccc(Nc2ncnc3cc(OCCOC)c(OCCOC)cc23)c1 [erlotinib] |  |  |  |  |  |  |  |  | 4.44 | 93 | 21 | -0.469 | -1.89 | 20 | -9 | 5 |
| CCCS(=O)(=O)Nc1ccc(F)c(C(=O)c2c[nH]c3ncc(-c4ccc(Cl)cc4)cc23)c1F [vemurafenib] | -0.177 | 8 | -1.4 | -2.74 | 5 | -14 | -18 | -1 |  |  |  |  |  |  |  |  |
| N#CC[C@H](C1CCCC1)n1cc(-c2ncnc3[nH]ccc23)cn1 [ruxolitinib] | 87 |  | -6 | -4 | 33 |  | -5 | 3.51 |  |  |  | -2.14 | -0.311 |  |  |  |
